39 molecules from US7977322B2 (Vertex Pharmaceuticals Incorporated, priority 2004, dated 2011) can be followed below.

The test addresses T1, ΔF508-CFTR (Homo sapiens, UniProt P13569, DEL508-508).
T1 construct: expressed in transfected cells
As to the kind of experiment: Membrane potential optical (FRET/VIPR) assay, identification of correction compounds. The following applies: Table 3, assay not given; for Emax: read-out: % Activity / % Efficacy (relative efficacy). In kind it is cell-based. Summed up:
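NIH3T3 mouse fibroblasts stably expressing ΔF508-CFTR were exposed to compound for 16 h at 37° C in serum-free medium, then loaded with DiSBAC2(3)/CC2-DMPE. After addition of 10 μM forskolin plus 20 μM genistein in Cl⁻-free gluconate bath (pH 7.4), depolarization from Cl⁻ efflux was read by FRET (VIPR II).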

T1 sequence (P13569 with tags, fused parts or gaps DEL508-508): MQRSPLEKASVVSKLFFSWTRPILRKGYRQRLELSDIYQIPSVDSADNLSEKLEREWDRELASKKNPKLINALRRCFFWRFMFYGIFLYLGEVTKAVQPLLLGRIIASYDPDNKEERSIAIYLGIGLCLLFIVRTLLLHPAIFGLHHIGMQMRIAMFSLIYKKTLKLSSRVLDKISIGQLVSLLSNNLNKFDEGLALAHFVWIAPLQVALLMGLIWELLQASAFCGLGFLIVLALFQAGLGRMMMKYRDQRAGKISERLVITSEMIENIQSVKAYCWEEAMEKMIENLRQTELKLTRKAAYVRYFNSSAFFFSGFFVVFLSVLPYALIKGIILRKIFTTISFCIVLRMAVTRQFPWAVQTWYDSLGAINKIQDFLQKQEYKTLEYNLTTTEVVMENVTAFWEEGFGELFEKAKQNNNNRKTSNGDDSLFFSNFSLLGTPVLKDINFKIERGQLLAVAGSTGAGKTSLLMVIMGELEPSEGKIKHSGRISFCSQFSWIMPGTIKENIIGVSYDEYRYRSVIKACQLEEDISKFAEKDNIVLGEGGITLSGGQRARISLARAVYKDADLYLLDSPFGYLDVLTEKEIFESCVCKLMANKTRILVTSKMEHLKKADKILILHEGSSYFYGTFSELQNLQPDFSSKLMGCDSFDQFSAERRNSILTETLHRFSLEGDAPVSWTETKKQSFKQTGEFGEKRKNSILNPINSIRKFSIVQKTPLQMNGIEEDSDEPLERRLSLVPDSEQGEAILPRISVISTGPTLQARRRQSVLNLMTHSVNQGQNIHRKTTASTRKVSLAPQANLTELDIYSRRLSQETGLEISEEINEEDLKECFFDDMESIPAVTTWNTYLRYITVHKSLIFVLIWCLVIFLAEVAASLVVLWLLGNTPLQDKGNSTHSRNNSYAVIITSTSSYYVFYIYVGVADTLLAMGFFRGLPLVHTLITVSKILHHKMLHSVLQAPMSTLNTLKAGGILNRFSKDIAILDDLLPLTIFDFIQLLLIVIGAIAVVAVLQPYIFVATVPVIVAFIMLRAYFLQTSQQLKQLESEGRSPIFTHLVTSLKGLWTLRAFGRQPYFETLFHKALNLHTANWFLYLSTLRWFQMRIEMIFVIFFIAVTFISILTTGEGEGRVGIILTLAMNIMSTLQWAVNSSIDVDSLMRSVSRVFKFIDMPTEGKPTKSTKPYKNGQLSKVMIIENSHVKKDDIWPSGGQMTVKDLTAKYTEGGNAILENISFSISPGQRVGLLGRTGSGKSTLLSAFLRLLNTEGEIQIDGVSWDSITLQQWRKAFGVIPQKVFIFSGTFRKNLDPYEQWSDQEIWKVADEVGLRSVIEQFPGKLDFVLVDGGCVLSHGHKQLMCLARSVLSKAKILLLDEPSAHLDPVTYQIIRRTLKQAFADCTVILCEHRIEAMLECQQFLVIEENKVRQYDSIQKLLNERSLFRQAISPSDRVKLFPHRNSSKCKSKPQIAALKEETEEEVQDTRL

For the molecule `Cc1ccccc1C1(C(=O)Nc2ncc(C(c3ccccc3Cl)N3CC[C@@H](O)C3)s2)CC1` (some centres unmarked) [Example 444], the EC50 was less than 10 µM and the Emax is greater than 100%. `O=C(Nc1ncc(C(c2ccccc2Cl)N2CC[C@@H](O)C2)s1)C1(c2ccc(C(F)(F)F)cc2)CC1` (some centres unmarked) [Example 445]: the EC50 was less than 10 µM and the Emax was greater than 100%. On the same counts, the results for `O=C(Nc1ncc(C(c2ccccc2Cl)N2CC[C@@H](O)C2)s1)C1(c2cccc(Cl)c2)CC1` (some centres unmarked) [Example 446] are less than 10 µM and greater than 100%. For `O=C(Nc1ncc(C(c2ccccc2Cl)N2CC[C@@H](O)C2)s1)C1(c2cccc(F)c2)CC1` (some centres unmarked) [Example 447], the EC50 was less than 10 µM and the Emax was greater than 100%. On the same counts, the results for `O=C(Nc1ncc(C(c2ccccc2Cl)N2CC[C@@H](O)C2)s1)C1(c2ccccc2F)CC1` (some centres unmarked) [Example 448] are 10 to 25 µM and greater than 100%. Regarding `O=C(Nc1ncc(C(c2ccccc2Cl)N2CC[C@@H](O)C2)s1)C1(c2ccc(Cl)cc2)CC1` (some centres unmarked) [Example 449], the EC50 is less than 10 µM and the Emax was greater than 100%.

`Cc1cccc(C2(C(=O)Nc3ncc(C(c4ccccc4Cl)N4CC[C@@H](O)C4)s3)CC2)c1` (some centres unmarked) [Example 450]: the EC50 is less than 10 µM and the Emax is greater than 100%.

With `COc1ccc(C2(C(=O)Nc3ncc(C(c4ccccc4Cl)N4CC[C@@H](O)C4)s3)CC2)cc1OC` (some centres unmarked) [Example 451], the EC50 was less than 10 µM and the Emax is greater than 100%. `COc1cccc(C2(C(=O)Nc3ncc(C(c4ccccc4Cl)N4CC[C@@H](O)C4)s3)CC2)c1` (some centres unmarked) [Example 452]: the EC50 was less than 10 µM and the Emax was greater than 100%. The like results for `O=C(Nc1ncc(C(Cc2ccccc2Cl)N2CCCC2)s1)C1(c2ccc3c(c2)OCO3)CC1` (centres unmarked) [Example 453] were, in that order, less than 10 µM and 25 to 100%. On the same counts, the results for `O=C(Nc1ncc(C(Cc2ccccc2Cl)N2CCCCC2)s1)C1(c2ccc3c(c2)OCO3)CC1` (centres unmarked) [Example 454] are less than 10 µM and greater than 100%. The like results for `COC[C@H]1CCCN1C(Cc1ccccc1Cl)c1cnc(NC(=O)C2(c3ccc4c(c3)OCO4)CC2)s1` (some centres unmarked) [Example 455] were, in that order, less than 10 µM and greater than 100%. With `COC[C@@H]1CCCN1C(Cc1ccccc1Cl)c1cnc(NC(=O)C2(c3ccc4c(c3)OCO4)CC2)s1` (some centres unmarked) [Example 456], the EC50 is less than 10 µM and the Emax is greater than 100%.

In the case of `CN(C)C(Cc1ccccc1Cl)c1cnc(NC(=O)C2(c3ccc4c(c3)OCO4)CC2)s1` (centres unmarked) [Example 457], the EC50 is less than 10 µM and the Emax is greater than 100%.

As for `NC(=O)C1CCCN1C(Cc1ccccc1Cl)c1cnc(NC(=O)C2(c3ccc4c(c3)OCO4)CC2)s1` (centres unmarked) [Example 458], the EC50 was less than 10 µM and the Emax is greater than 100%. Regarding `CCN(CC)C(Cc1ccccc1Cl)c1cnc(NC(=O)C2(c3ccc4c(c3)OCO4)CC2)s1` (centres unmarked) [Example 459], the EC50 was less than 10 µM and the Emax was greater than 100%. Regarding `O=C(Nc1ncc(C(Cc2ccccc2Cl)N2CCC(O)CC2)s1)C1(c2ccc3c(c2)OCO3)CC1` (centres unmarked) [Example 460], the EC50 is less than 10 µM and the Emax is greater than 100%.

As for `O=C(Nc1ncc(C(Cc2ccccc2Cl)N2CCOCC2)s1)C1(c2ccc3c(c2)OCO3)CC1` (centres unmarked) [Example 461], the EC50 is less than 10 µM and the Emax is greater than 100%. As to `O=C(Nc1ncc(C(Cc2ccccc2Cl)N2CC[C@@H](O)C2)s1)C1(c2ccc3c(c2)OCO3)CC1` (some centres unmarked) [Example 462], the EC50 was less than 10 µM and the Emax was greater than 100%. The like results for `CCOc1ccccc1C(c1cnc(NC(=O)C2(c3ccc4c(c3)OCO4)CC2)s1)N1CCCC1` (centres unmarked) [Example 463] were, in that order, less than 10 µM and 25 to 100%.

Take `O=C(Nc1ncc(C(c2ccccc2C(F)(F)F)N2CC[C@@H](O)C2)s1)C1(c2ccc3c(c2)OCO3)CC1` (some centres unmarked) [Example 464]: the EC50 is less than 10 µM and the Emax was greater than 100%. The like results for `O=C(Nc1ncc(C(c2ccccc2F)N2CCCC2)s1)C1(c2ccc3c(c2)OCO3)CC1` (centres unmarked) [Example 465] were, in that order, less than 10 µM and greater than 100%. As for `Cc1ccccc1C(c1cnc(NC(=O)C2(c3ccc4c(c3)OCO4)CC2)s1)N1CC[C@@H](O)C1` (some centres unmarked) [Example 466], the EC50 lay in the range of 10 to 25 µM and the Emax was greater than 100%. In the case of `O=C(Nc1ncc(C(c2ccc(Cl)cc2Cl)N2CCCC2)s1)C1(c2ccc3c(c2)OCO3)CC1` (centres unmarked) [Example 467], the concentration for a half-maximal effect (EC50) is less than 10 µM and the Emax was greater than 100%. Turning to `O=C(Nc1ncc(C(c2ccccc2C(F)(F)F)N2CCCC2)s1)C1(c2ccc3c(c2)OCO3)CC1` (centres unmarked) [Example 468], the EC50 is less than 10 µM and the Emax was greater than 100%. On the same counts, the results for `Cc1ccccc1C(c1cnc(NC(=O)C2(c3ccc4c(c3)OCO4)CC2)s1)N1CCCC1` (centres unmarked) [Example 469] are less than 10 µM and greater than 100%. Take `O=C(Nc1ncc(C(c2ccc(Cl)cc2Cl)N2CC[C@@H](O)C2)s1)C1(c2ccc3c(c2)OCO3)CC1` (some centres unmarked) [Example 470]: the EC50 is less than 10 µM and the Emax was greater than 100%. As to `O=C(Nc1ncc(C(c2cc(F)ccc2F)N2CCCC2)s1)C1(c2ccc3c(c2)OCO3)CC1` (centres unmarked) [Example 471], the EC50 is less than 10 µM and the Emax was greater than 100%.

As for `O=C(Nc1ncc(C(c2ccccc2F)N2CC[C@@H](O)C2)s1)C1(c2ccc3c(c2)OCO3)CC1` (some centres unmarked) [Example 472], the half-maximal effective concentration (EC50) is less than 10 µM and the Emax was greater than 100%. On the same counts, the results for `CCOc1ccccc1C(c1cnc(NC(=O)C2(c3ccc4c(c3)OCO4)CC2)s1)N1CC[C@@H](O)C1` (some centres unmarked) [Example 473] are less than 10 µM and greater than 100%. As for `O=C(Nc1ncc(C(c2cc(F)ccc2F)N2CC[C@@H](O)C2)s1)C1(c2ccc3c(c2)OCO3)CC1` (some centres unmarked) [Example 474], the EC50 was less than 10 µM and the Emax is greater than 100%.

On to `NC(c1cnc(NC(=O)C2(c3ccc4c(c3)OCO4)CC2)s1)c1ccccc1Cl` (centres unmarked) [Example 475], for which the EC50 was less than 10 µM and the Emax lay in the range of 25 to 100%. With `CCOc1ccccc1C(NC(CO)CC(C)C)c1cnc(NC(=O)C2(c3ccc4c(c3)OCO4)CC2)s1` (centres unmarked) [Example 476], the Emax is greater than 100%. Consider `CCOc1ccccc1C(N[C@@H](CO)CC(C)C)c1cnc(NC(=O)C2(c3ccc4c(c3)OCO4)CC2)s1` (some centres unmarked) [Example 476], for which the EC50 was less than 10 µM.

Turning to `Cc1ccccc1C(N[C@@H](CO)CC(C)C)c1cnc(NC(=O)C2(c3ccc4c(c3)OCO4)CC2)s1` (some centres unmarked) [Example 477], the EC50 is less than 10 µM and the Emax is greater than 100%. As for `CCOc1ccccc1C(NC(CO)C(C)C)c1cnc(NC(=O)C2(c3ccc4c(c3)OCO4)CC2)s1` (centres unmarked) [Example 478], the Emax was greater than 100%. `CCOc1ccccc1C(N[C@@H](CO)C(C)C)c1cnc(NC(=O)C2(c3ccc4c(c3)OCO4)CC2)s1` (some centres unmarked) [Example 478]: the EC50 is less than 10 µM. As to `Cc1ccccc1C(N[C@@H](CO)C(C)C)c1cnc(NC(=O)C2(c3ccc4c(c3)OCO4)CC2)s1` (some centres unmarked) [Example 479], the EC50 was less than 10 µM and the Emax was greater than 100%. As to `CC(C)C[C@H](CO)NC(c1cnc(NC(=O)C2(c3ccc4c(c3)OCO4)CC2)s1)c1cc(F)ccc1F` (some centres unmarked) [Example 480], the EC50 was less than 10 µM and the Emax was greater than 100%.
